Earlier results on five compounds are cited in patent publication US20120020948A1, “DAG-TYPE AND INDIRECT PROTEIN KINASE C ACTIVATORS AND ANTICOAGULANT FOR THE TREATMENT OF STROKE” (priority 2010, published 2012).

For one series, the system named is PKC. The note with it: for affinity for PKC: A-ring bryologs.

For `CCCCCCCC(=O)OC1C(=CC(=O)OC)CC2CC(CO)OC(=O)CC(O)CCOC(CCCc3ccc(Br)cc3)CC3CCOC(C=CC(C)(C)C1(O)O2)O3` (stereo not drawn) [bryolog 5], the “affinity for PKC” value with PKC is reported as 1.9 nM.

In the case of `CCCCCCCC(=O)OC1C(=CC(=O)OC)CC2CC(CO)OC(=O)CC(O)CCOC(c3ccccc3)CC3CCOC(C=CC(C)(C)C1(O)O2)O3` (stereo not drawn) [bryolog 4], in the series on PKC, the “affinity for PKC” value is 2.3 nM. As to `CCCCCCCC(=O)OC1C(=CC(=O)OC)CC2CC(CO)OC(=O)CC(O)CCOC(C(C)(C)C)CC3CCOC(C=CC(C)(C)C1(O)O2)O3` (stereo not drawn) [bryolog 3], the “affinity for PKC” value with PKC is 6.5 nM. As for `CC1=CC[C@H](C)C(C)(C)[C@@H]1/C=C/C(C)=C/CC[C@@]1(CO)[C@H](CCCO)/C(=C(/C)C=O)CC[C@]1(C)O` [Iripallidal], the “GI50 (concentration required to inhibit growth by 50%)” value in the series with NCI 60 cell line screen is reported as “micromolar to nanomolar range”.

For `CCCCCCCC(=O)O[C@H]1/C(=C/C(=O)OC)C[C@H]2C[C@H](CO)OC(=O)C[C@H](O)C[C@@H]3CCC[C@H](C[C@@H]4CCO[C@H](/C=C/C(C)(C)[C@]1(O)O2)O4)O3` [Analog 1], in the series with PKC, the “PKC Affin” value is recorded as 0.25 nM and the “affinity for PKC (in words)” value was “highest affinity for PKC”.
